Target: Recombinant human JAK1 catalytic domain (Homo sapiens (Human), UniProt P23458)
Test: JAK1 inhibition assay
Type: biochemical
Conditions: semi-quantitative score
Protocol: Plates were washed 6 times with 300 μL per well of a 75 mM phosphoric acid solution and the bottom of the plates was sealed. 40 μL/well of Microscint-20 was added, the top of the plates was sealed and readout was performed using the Topcount (Perkin Elmer). Kinase activity was calculated by subtracting counts per minute (cpm) obtained in the presence of a positive control inhibitor (10 μM staurosporine) from cpm obtained in the presence of vehicle. The ability of a test compound to inhibit this activity was determined as: Percentage inhibition=((cpm determined for sample with test compound present−cpm determined for sample with positive control inhibitor) divided by (cpm determined in the presence of vehicle−cpm determined for sample with positive control inhibitor))*100%.
Dose dilution series were prepared for the compounds enabling the testing of dose-response effects in the JAK1 assay and the calculation of the IC50 for each compound.

Recombinant human JAK1 catalytic domain, sequence (P23458 850-1154): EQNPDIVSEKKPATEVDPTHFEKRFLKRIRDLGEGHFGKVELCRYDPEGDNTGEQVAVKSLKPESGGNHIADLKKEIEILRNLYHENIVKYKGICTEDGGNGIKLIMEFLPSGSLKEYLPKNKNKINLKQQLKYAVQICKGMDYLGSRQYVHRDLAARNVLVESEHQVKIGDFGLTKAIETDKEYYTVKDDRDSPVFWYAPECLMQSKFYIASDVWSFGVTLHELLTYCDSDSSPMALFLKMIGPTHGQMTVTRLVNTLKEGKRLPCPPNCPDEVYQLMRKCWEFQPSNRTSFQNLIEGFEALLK

Row | Compound | IC50 [µM]
1 | O=C(Nc1ccc(-c2cccc3nc(NC(=O)C4CC4)nn23)cc1)c1ccccc1F [Compound 34, N-(4-(2-(cyclopropanecarboxamido)-[1,2,4]triazolo[1,5-a]pyridin-5-yl)phenyl)-2-fluorobenzamide] | 0.101 to 0.5
2 | O=C(Nc1ccc(-c2cccc3nc(NC(=O)C4CC4)nn23)cc1)c1cnccn1 [Compound 35, N-(4-(2-(cyclopropanecarboxamido)-[1,2,4]triazolo[1,5-a]pyridin-5-yl)phenyl)pyrazine-2-carboxamide] | 0.101 to 0.5
3 | O=C(Nc1nc2cccc(-c3ccc(OCc4cccc(OC(F)(F)F)c4)cc3)n2n1)C1CC1 [Compound 38, N-(5-(4-(3-(trifluoromethoxy)benzyloxy)phenyl)-[1,2,4]triazolo[1,5-a]pyridin-2-yl)cyclopropanecarboxamide] | 0.101 to 0.5
4 | COc1cccc(C(=O)Nc2ccc(-c3cccc4nc(NC(=O)C5CC5)nn34)cc2)c1 [Compound 53, N-(4-(2-(cyclopropanecarboxamido)-[1,2,4]triazolo[1,5-a]pyridin-5-yl)phenyl)-3-methoxybenzamide] | 0.101 to 0.5
5 | O=C(Nc1ccc(-c2cccc3nc(NC(=O)C4CC4)nn23)cc1)c1ccccn1 [Compound 55, N-(4-(2-(cyclopropanecarboxamido)-[1,2,4]triazolo[1,5-a]pyridin-5-yl)phenyl)picolinamide] | 0.101 to 0.5
6 | Cc1nc(COc2ccc(-c3cccc4nc(NC(=O)C5CC5)nn34)cc2)c(C)o1 [Compound 63, N-(5-(4-((2,5-dimethyloxazol-4-yl)methoxy)phenyl)-[1,2,4]triazolo[1,5-a]pyridin-2-yl)cyclopropanecarboxamide] | 0.101 to 0.5
7 | Cc1nn(C)cc1S(=O)(=O)Nc1ccc(-c2cccc3nc(NC(=O)C4CC4)nn23)cc1 [Compound 65, N-(5-(4-(1,3-dimethyl-1H-pyrazole-4-sulfonamido)phenyl)-[1,2,4]triazolo[1,5-a]pyridin-2-yl)cyclopropanecarboxamide] | 0.101 to 0.5
8 | O=C(Nc1nc2cccc(-c3ccc(-c4cn[nH]c4)cc3)n2n1)C1CC1 [Compound 67, N-(5-(4-(1H-pyrazol-4-yl)phenyl)-[1,2,4]triazolo[1,5-a]pyridin-2-yl)cyclopropanecarboxamide] | 0.101 to 0.5
9 | CCCc1cc(C(=O)Nc2ccc(-c3cccc4nc(NC(=O)C5CC5)nn34)cc2)n(C)n1 [Compound 69] | 0.101 to 0.5
10 | O=C(Nc1nc2cccc(-c3ccc(C(=O)N4CCC(c5ccc(Cl)cc5)CC4)cc3)n2n1)C1CC1 [Compound 86] | < 0.1
11 | CN(Cc1ccccc1)C1CCN(C(=O)c2ccc(-c3cccc4nc(NC(=O)C5CC5)nn34)cc2)CC1 [Compound 103, N-(5-(4-(4-(benzyl(methyl)amino)piperidine-1-carbonyl)phenyl)-[1,2,4]triazolo[1,5-a]pyridin-2-yl)cyclopropanecarboxamide] | > 1
12 | COc1ccc(CCN(C)C(=O)c2ccc(-c3cccc4nc(NC(=O)C5CC5)nn34)cc2)cc1OC [Compound 105, 4-(2-(cyclopropanecarboxamido)-[1,2,4]triazolo[1,5-a]pyridin-5-yl)-N-(3,4-dimethoxyphenethyl)-N-methylbenzamide] | 0.101 to 0.5
13 | O=C(Nc1nc2cccc(-c3ccc(C(=O)N4CCC(Oc5cccnc5)CC4)cc3)n2n1)C1CC1 [Compound 110, N-(5-(4-(4-(pyridin-3-yloxy)piperidine-1-carbonyl)phenyl)-[1,2,4]triazolo[1,5-a]pyridin-2-yl)cyclopropanecarboxamide] | 0.101 to 0.5
14 | O=C(Nc1nc2cccc(-c3ccc(OCC(=O)N4CCCCC4)cc3)n2n1)C1CC1 [Compound 117, N-(5-(4-(2-oxo-2-(piperidin-1-yl)ethoxy)phenyl)-[1,2,4]triazolo[1,5-a]pyridin-2-yl)cyclopropanecarboxamide] | > 1
15 | CN1CCN(Cc2ccc(COc3ccc(-c4cccc5nc(NC(=O)C6CC6)nn45)cc3)cc2)CC1 [Compound 126, N-(5-(4-(4-((4-methylpiperazin-1-yl)methyl)benzyloxy)phenyl)-[1,2,4]triazolo[1,5-a]pyridin-2-yl)cyclopropanecarboxamide] | 0.101 to 0.5

Second part, the molecule after the results:

Row | IC50 [µM] | Compound
16 | 0.101 to 0.5 | O=C(Nc1nc2cccc(-c3cccc(CN4CCOCC4)c3)n2n1)C1CC1 [Compound 2, N-(5-(3-(morpholinomethyl)phenyl)-[1,2,4]triazolo[1,5-a]pyridin-2-yl)cyclopropanecarboxamide]
17 | 0.501 to 1 | O=C(Nc1nc2cccc(-c3cnc(N4CCCC4)nc3)n2n1)C1CC1 [Compound 4, N-(5-(2-(pyrrolidin-1-yl)pyrimidin-5-yl)-[1,2,4]triazolo[1,5-a]pyridin-2-yl)cyclopropanecarboxamide]
18 | > 1 | CN1CCN(c2ccc(-c3cccc4nc(NC(=O)C5CC5)nn34)cn2)CC1 [Compound 5, N-(5-(6-(4-methylpiperazin-1-yl)pyridin-3-yl)-[1,2,4]triazolo[1,5-a]pyridin-2-yl)cyclopropanecarboxamide]
19 | > 1 | O=C(Nc1nc2cccc(-c3ccc(N4CCOCC4)nc3)n2n1)C1CC1 [Compound 6, N-(5-(6-morpholinopyridin-3-yl)-[1,2,4]triazolo[1,5-a]pyridin-2-yl)cyclopropanecarboxamide]
20 | > 1 | O=C(Nc1nc2cccc(-c3cnc(N4CCOCC4)nc3)n2n1)C1CC1 [Compound 8, N-(5-(2-morpholinopyrimidin-5-yl)-[1,2,4]triazolo[1,5-a]pyridin-2-yl)cyclopropanecarboxamide]
21 | > 1 | O=C(Nc1nc2cccc(-c3cnc(N4CCCCC4)nc3)n2n1)C1CC1 [Compound 9, N-(5-(2-(piperidin-1-yl)pyrimidin-5-yl)-[1,2,4]triazolo[1,5-a]pyridin-2-yl)cyclopropanecarboxamide]
22 | 0.501 to 1 | O=C(Nc1ccc(-c2cccc3nc(NC(=O)C4CC4)nn23)cn1)c1ccccc1 [Compound 44, N-(5-(2-(cyclopropanecarboxamido)-[1,2,4]triazolo[1,5-a]pyridin-5-yl)pyridin-2-yl)benzamide]
23 | 0.101 to 0.5 | O=C(Nc1ccc(-c2cccc3nc(NC(=O)C4CC4)nn23)cc1)C1CCCCC1 [Compound 45, N-(4-(2-(cyclopropanecarboxamido)-[1,2,4]triazo[1,5-a]pyridin-5-yl)phenyl)cyclohexanecarbox-amide]
24 | 0.101 to 0.5 | O=C(Nc1nc2cccc(-c3ccc(-c4ccccc4)nc3)n2n1)C1CC1 [Compound 47, N-(5-(6-phenylpyridin-3-yl)-[1,2,4]triazolo[1,5-a]pyridin-2-yl)cyclopropanecarboxamide]
25 | > 1 | O=C(Nc1nc2cccc(-c3ccc(N4CCNCC4)nc3)n2n1)C1CC1 [Compound 61, N-(5-(6-(piperazin-1-yl)pyridin-3-yl)-[1,2,4]triazolo[1,5-a]pyridin-2-yl)cyclopropanecarboxamide]
26 | 0.101 to 0.5 | O=C(Nc1nc2cccc(-c3ccc(-c4cccnc4)nc3)n2n1)C1CC1 [Compound 68, N-(5-(2,3′-bipyridin-5-yl)-[1,2,4]triazolo[1,5-a]pyridin-2-yl)cyclopropanecarboxamide]
27 | 0.101 to 0.5 | O=C(Nc1ccc(-c2cccc3nc(NC(=O)C4CC4)nn23)cc1)C1CCC1 [Compound 70, N-(4-(2-(cyclopropanecarboxamido)-[1,2,4]triazolo[1,5-a]pyridin-5-yl)phenyl)cyclobutanecarbox-amide]
28 | 0.101 to 0.5 | CCOCC1CCN(C(=O)c2ccc(-c3cccc4nc(NC(=O)C5CC5)nn34)cc2)CC1 [Compound 73]
29 | 0.101 to 0.5 | O=C(NCCN1CCCC1)c1ccc(-c2cccc3nc(NC(=O)C4CC4)nn23)cc1 [Compound 80, 4-(2-(cyclopropanecarboxamido)-[1,2,4]lriazoIo[1,5-a]pyridin-5-yl)-N-(2-(pyrrolidin-l-yl)ethyl)benzamide]
30 | 0.101 to 0.5 | O=C(NCCCN1CCOCC1)c1ccc(-c2cccc3nc(NC(=O)C4CC4)nn23)cc1 [Compound 81, 4-(2-(cyclopropanecarboxamido)-[1,2,4]triazolo[1,5-a]pyridin-5-yl)-N-(3-morpholinopropyl)benzamide]
31 | 0.101 to 0.5 | O=C(Nc1nc2cccc(-c3ccc(NCCC4CCOCC4)nc3)n2n1)C1CC1 [Compound 93, N-(5-(6-(2-(tetrahydro-2H-pyran-4-yl)ethylamino)pyridin-3-yl)-[1,2,4]triazolo[1,5-a]pyridin-2-yl)cyclopropanecarboxamide]
32 | 0.101 to 0.5 | O=C(Nc1nc2cccc(-c3ccc(C(=O)N4CCC(CCN5CCOCC5)CC4)cc3)n2n1)C1CC1 [Compound 94, N-(5-(4-(4-(2-morpholinoethyl)piperidine-1-carbonyl)phenyl)-[l,2,4]triazolo[1,5-a]pyridin-2-yl)cyclopropanecarboxamide]
33 | > 1 | O=C(Nc1nc2cccc(-c3ccnc(N4CCC(CCN5CCOCC5)CC4)c3)n2n1)C1CC1 [Compound 95, N-(5-(2-(4-(2-morpholinoethyl)piperidin-1-yl)pyridin-4-yl)-[1,2,4]triazolo[1,5-a]pyridin-2-yl)cyclopropanecarboxamide]
34 | 0.101 to 0.5 | O=C(Nc1nc2cccc(-c3ccc(C(=O)N4CCC(N5CCOCC5)CC4)cc3)n2n1)C1CC1 [Compound 101, N-(5-(4-(4-morpholinopiperidine-1-carbonyl)phenyl)-[1,2,4]triazolo[1,5-a]pyridin-2-yl)cyclopropanecarboxamide]
35 | 0.101 to 0.5 | CC(C)(CN1CCOCC1)NC(=O)c1ccc(-c2cccc3nc(NC(=O)C4CC4)nn23)cc1 [Compound 102, 4-(2-(cyclopropanecarboxamido)-[1,2,4]triazolo[1,5-a]pyridin-5-yl)-N-(2-methyl-1-morpholinopropan-2-yl)benzamide]
36 | > 1 | O=C(Nc1nc2cccc(-c3ccnc(N4CCC(CCc5ccccc5)CC4)c3)n2n1)C1CC1 [Compound 112, N-(5-(2-(4-phenethylpiperidin-1-yl)pyridin-4-yl)-[1,2,4]triazolo[1,5-a]pyridin-2-yl)cyclopropanecarboxamide]

Reference: patent publication US10206907B2, “Compounds useful for the treatment of degenerative and inflammatory diseases” (GALAPAGOS NV, priority 2008, dated 2019)
